# Data published in patent US20250127766A1, “METHODS AND COMPOSITIONS FOR TREATING CDKL5 DISORDER USING MONOAMINE OXIDASE INHIBITORS” (priority 2023, published 2025).
# Assays:
# EB2 phosphorylation = EB2 phosphorylation in CDKL5 knockout (KO) mouse model; assay type: in vivo; conditions: knockout (KO) male and Het female mice; compared with vehicle (drinking water)
# Procedure: In this context, EB2 phosphorylation acts as a functional molecular readout for the disease-modifying potential of small molecules, such as monoamine oxidase inhibitors (MAO-Is). When studying the efficacy of potential therapies for CDD, the measurement of EB2 phosphorylation levels can provide insight into whether the treatment is capable of compensating for the dysfunctional CDKL5 protein.
# To evaluate the impact of MAO-Is on EB2 phosphorylation, an in vivo study was conducted using a well-established CDKL5 knockout (KO) mouse model, specifically the B6.129(FVB)-Cdk15tm1.1Joez/J strain from Jackson Laboratories. […] These mice provide a relevant model for testing how pharmacological agents such as MAO-Is can modulate neuronal activity and potentially restore normal function in the absence of CDKL5.
# The increase in EB2 phosphorylation in these models provides compelling evidence that MAO-Is offer a disease-modifying therapeutic approach for patients with CDKL5 deficiency disorder, by targeting key molecular pathways involved in synaptic transmission and brain development.
# CDKL5 knockout mice = test: In vivo studies in CDKL5 knockout mice: synaptic transmission and neuronal connectivity
# Procedure: This dosing regimen may serve as a reference point for establishing human doses. Extrapolating from these animal models, an initial dosing range for children of 1 to 2 mg/kg per day. This range can be adjusted depending on the individual's size and response, with a narrower range of 1.5 to 2 mg/kg per day for more precise dosing or even tighter to 1.75 to 2 mg/kg per day in specific cases. For broader clinical flexibility, a starting range of 0.5 to 3 mg/kg per day might be considered for pediatric populations, with adjustments based on individual tolerance and therapeutic outcomes.
# In in vivo studies, animal models of neurodevelopmental disorders, including CDKL5 knockout mice, have been treated with liquiritin to assess its impact on synaptic transmission and neuronal connectivity.
# MAO-B = molecular target: T1, MAO-B (Homo sapiens, UniProt P27338); test: MAO-B inhibitory activity; assay type: biochemical
# T1 sequence (P27338 1-520): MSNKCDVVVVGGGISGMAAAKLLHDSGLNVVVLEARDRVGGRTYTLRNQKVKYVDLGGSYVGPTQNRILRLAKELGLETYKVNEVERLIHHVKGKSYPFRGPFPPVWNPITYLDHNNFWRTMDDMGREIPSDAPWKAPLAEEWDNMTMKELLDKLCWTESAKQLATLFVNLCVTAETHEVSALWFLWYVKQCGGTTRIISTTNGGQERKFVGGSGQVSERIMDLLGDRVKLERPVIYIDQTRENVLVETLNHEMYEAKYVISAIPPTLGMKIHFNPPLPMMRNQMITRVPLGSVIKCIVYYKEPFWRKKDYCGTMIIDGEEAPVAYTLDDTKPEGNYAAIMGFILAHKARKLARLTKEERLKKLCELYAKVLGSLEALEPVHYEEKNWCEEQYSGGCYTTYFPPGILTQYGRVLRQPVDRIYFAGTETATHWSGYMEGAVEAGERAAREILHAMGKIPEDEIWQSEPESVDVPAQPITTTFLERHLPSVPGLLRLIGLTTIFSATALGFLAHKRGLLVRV
# From the text: Though its MAO-B inhibitory activity is not as potent as that of other compounds such as safinamide, its ability to mildly modulate neurotransmitter levels, particularly dopamine and serotonin, may be beneficial in improving synaptic communication in CDD. In addition to its interaction with the monoamine pathways, liquiritin's anti-inflammatory properties may aid in reducing the neuroinflammation often observed in CDKL5-deficient patients. By targeting both neurotransmitter regulation and inflammatory processes, liquiritin offers a dual mechanism that may be effective in restoring synaptic balance.
# [1] = system: oxidative damage of neurons; conditions: cited from earlier work
# [2] = system: CDKL5-deficient organoids; test: Network activity of organoids derived from patient iPSCs; assay type: cell-based, human; conditions: CDKL5-deficient organoids treated with harmine
# Procedure: Another set of experiments was conducted using organoids derived from patient-induced pluripotent stem cells (iPSCs). Organoids are three-dimensional structures created from stem cells that closely resemble specific organs or tissues in terms of cellular composition, architecture, and function. These structures are widely used in biomedical research because they replicate the complexity of real organs, including their multiple cell types, tissue-specific structures, and the functions of the organ being modeled. In this study, organoids were generated to mimic the neuronal network of patients with CDKL5 deficiency disorder (CDD), providing a model system to explore the underlying mechanisms of the disorder and test potential therapeutic approaches.
# Increased network excitability refers to an overactive state where neurons fire excessively, a characteristic associated with the seizure activity observed in CDD patients. Altered synchrony in the neuronal network reflects disrupted communication between neurons, contributing to cognitive impairments.
# DYRK1A = molecular target: T2, DYRK1A (Homo sapiens, UniProt Q13627); test: DYRK1A activity in harmine-treated organoids; assay type: cell-based
# T2 construct: endogenous in cells; host or cells: CDKL5-deficient organoids
# From the text: DYRK1A is a kinase that adds phosphate groups to proteins, thereby regulating their function. In CDKL5 deficiency, the lack of CDKL5-mediated regulation leads to overactivation of DYRK1A, resulting in dysregulated synaptic signaling and impaired neuronal communication. Harmine, by selectively inhibiting DYRK1A, restores the phosphorylation balance at the synapse, preventing over-phosphorylation of critical synaptic proteins. This modulation of synaptic signaling pathways by harmine contributes to the restoration of neuronal connectivity and the normalization of network activity in the treated organoids.
# microglial cells = test: Microglial activity
# From the text: This activation is associated with the release of proinflammatory cytokines, which promote neuroinflammatory processes.
# GABA receptor = conditions: in vitro; cited from earlier work
# [3] = system: proinflammatory cytokines and chemokines; test: Production and release of proinflammatory cytokines and chemokines
# [4] = system: seizures in animal models; conditions: cited from earlier work
smiles,measurement,setting,value
O=C1C[C@@H](c2ccc(O[C@@H]3O[C@H](CO)[C@@H](O)[C@H](O)[C@H]3O)cc2)Oc2cc(O)ccc21 [liquiritin],EB2 phosphorylation levels,EB2 phosphorylation,effective in increasing EB2 phosphorylation levels
same,synaptic function,CDKL5 knockout mice; animal models including CDKL5 knockout mice,moderate improvements in synaptic function
same,MAO-B inhibitory activity,MAO-B,weak MAO-B inhibitor
same,antioxidant activity,[1],demonstrated antioxidant activity
COc1ccc2c(c1)[nH]c1c(C)nccc12 [harmine],burst firing patterns,[2],normalized the burst firing patterns
same,network excitability,[2],reduced network excitability
same,neuronal synchrony,[2],improved neuronal synchrony
same,DYRK1A activity,DYRK1A,modulation of DYRK1A activity
same,microglial activity (overactivation),microglial cells,reducing their overactivation
same,efficacy of the dosing regimen,"CDKL5 knockout mice; 30 mg/kg intraperitoneally, 5 days on, 2 days off, another 5-day cycle",has shown efficacy
same,neurological outcomes,CDKL5 knockout mice; CDKL5 knockout mice,improved neurological outcomes
same,synaptic transmission and neuronal connectivity,CDKL5 knockout mice; CDKL5 knockout mice,significant improvements in synaptic transmission and neuronal connectivity
same,GABA receptor activity,GABA receptor,increases GABA receptor activity
same,production and release of proinflammatory cytokines and chemokines,[3],inhibits the production and release of proinflammatory cytokines and chemokines
C[C@H](NCc1ccc(OCc2cccc(F)c2)cc1)C(N)=O [safinamide],anticonvulsant properties,[4],suppress seizures and provide neuroprotective effects
